Laboratory results published in paper PMC5786788, “Antimicrobial Octapeptin C4 Analogues Active against Cryptococcus Species” (Antimicrobial Agents and Chemotherapy, 2018).
Values after ≈ are worked out from the molar mass of the structure shown. Where two headings read alike, the source gives them in different places.

Key:
[1] = system: C. neoformans var. grubii; test: microbe, parasite or virus in culture
Method: The MICs of the yeast strains for PMB, PME, and octapeptin C4 and its derivatives were determined in accordance with CLSI M27-A2 guidelines using YNB (Becton Dickinson, USA) medium supplemented with 10 mM ammonium sulfate and 2% glucose, a final inoculum concentration of 1.5 × 10^3 to 2.0 × 10^3 cells/ml, and incubation at 35°C for 72 h ([39]). […] The MICs for PMB, PME, and octapeptin C4 for A. fumigatus were determined in accordance with the CLSI M38-A2 guidelines ([40]) using synthetic RPMI 1640 medium (with glutamine, without bicarbonate and with phenol red; Life Technologies, USA). The final inoculum concentration was 0.4 × 10^4 to 5 × 10^4 cells/ml, with incubation at 35°C for 48 h. […] All assays were completed in triplicate. Fluconazole was used as a positive control where the MIC was determined at both 50% growth (in accordance with CLSI M27-A2 guidelines) and when there was a “no visible growth” reading. […]

[2] = system: C. neoformans var. gattii; test: microbe, parasite or virus in culture; settings: Cryptococcus neoformans
Method: The MICs of the yeast strains for PMB, PME, and octapeptin C4 and its derivatives were determined in accordance with CLSI M27-A2 guidelines using YNB (Becton Dickinson, USA) medium supplemented with 10 mM ammonium sulfate and 2% glucose, a final inoculum concentration of 1.5 × 10^3 to 2.0 × 10^3 cells/ml, and incubation at 35°C for 72 h ([39]). […] The MICs for PMB, PME, and octapeptin C4 for A. fumigatus were determined in accordance with the CLSI M38-A2 guidelines ([40]) using synthetic RPMI 1640 medium (with glutamine, without bicarbonate and with phenol red; Life Technologies, USA). The final inoculum concentration was 0.4 × 10^4 to 5 × 10^4 cells/ml, with incubation at 35°C for 48 h. […] All assays were completed in triplicate. Fluconazole was used as a positive control where the MIC was determined at both 50% growth (in accordance with CLSI M27-A2 guidelines) and when there was a “no visible growth” reading.

Question: Which results are given for `OC(Cn1cncn1)(Cn1cncn1)c1ccc(F)cc1F` [Fluconazole, fluconazole]?
Answer: MIC ([1]; Cryptococcus neoformans, read-out: MIC-2, strain 486 (USA), 50% fungal growth): 12.5 µg/mL (≈ 40.8 µM); MIC ([1]; Cryptococcus neoformans, read-out: MIC-2, strain 488 (AIDS+, pre-HAART USA), 50% fungal growth): 12.5 µg/mL (≈ 40.8 µM); MIC ([1]; Cryptococcus neoformans, read-out: MIC-2, strain 490 (USA), 50% fungal growth): 6.25 µg/mL (≈ 20.4 µM); MIC ([1]; Cryptococcus neoformans, read-out: MIC-2, strain 496 (USA), 50% fungal growth): 6.25 µg/mL (≈ 20.4 µM); MIC ([1]; Cryptococcus neoformans, read-out: MIC-2, strain 500 (USA), 50% fungal growth): 6.5 µg/mL (≈ 21.2 µM); MIC ([1]; Cryptococcus neoformans, read-out: MIC-2, strain 502 (ARR3+ USA), 50% fungal growth): 6.5 µg/mL (≈ 21.2 µM); MIC ([1]; Cryptococcus neoformans, read-out: MIC-2, strain 505 (India), 50% fungal growth): 6.25 µg/mL (≈ 20.4 µM); MIC ([1]; Cryptococcus neoformans, read-out: MIC-2, strain 507 (India), 50% fungal growth): 6.25 µg/mL (≈ 20.4 µM); MIC ([1]; Cryptococcus neoformans, read-out: MIC-2, strain 510 (VNII India), 50% fungal growth): 1.56 µg/mL (≈ 5.09 µM); MIC ([1]; Cryptococcus neoformans, read-out: MIC-2, strain 512 (India), 50% fungal growth): 6.25 µg/mL (≈ 20.4 µM); MIC ([1]; Cryptococcus neoformans, read-out: MIC-2, strain 516 (India), 50% fungal growth): 6.25 µg/mL (≈ 20.4 µM); MIC ([1]; Cryptococcus neoformans, read-out: MIC-2, strain 518 (VNI India), 50% fungal growth): 6.25 µg/mL (≈ 20.4 µM); MIC ([1]; Cryptococcus neoformans, read-out: MIC-2, strain 522 (India), 50% fungal growth): 6.25 µg/mL (≈ 20.4 µM); MIC ([1]; Cryptococcus neoformans, read-out: MIC-2, strain 525 (India), 50% fungal growth): 12.5 µg/mL (≈ 40.8 µM); MIC ([1]; Cryptococcus neoformans, read-out: MIC-2, strain 1188 (Japan lung), 50% fungal growth): 3.13 µg/mL (≈ 10.2 µM); MIC ([1]; Cryptococcus neoformans, read-out: MIC-2, strain 1194 (Italy), 50% fungal growth): 1.56 µg/mL (≈ 5.09 µM); MIC ([1]; Cryptococcus neoformans, read-out: MIC-2, strain 1196 (Botswana CSF/AIDS), 50% fungal growth): 12.5 µg/mL (≈ 40.8 µM); MIC ([1]; Cryptococcus neoformans, read-out: MIC-2, strain 1197 (Botswana CSF/AIDS), 50% fungal growth): 3.13 µg/mL (≈ 10.2 µM); MIC ([1]; Cryptococcus neoformans, read-out: MIC-2, strain 1199 (Uganda CSF/HIV+ VNII), 50% fungal growth): 3.13 µg/mL (≈ 10.2 µM); MIC ([1]; Cryptococcus neoformans, read-out: MIC-2, strain H99O (lab strain), 50% fungal growth): 6.25 µg/mL (≈ 20.4 µM); MIC ([1]; Cryptococcus neoformans, read-out: MIC-2, strain H99 XL (lab strain), 50% fungal growth): 3.13 µg/mL (≈ 10.2 µM); MIC ([1]; Cryptococcus neoformans, read-out: MIC-2, strain H99 stud (lab strain), 50% fungal growth): 3.13 µg/mL (≈ 10.2 µM); MIC ([1]; Cryptococcus neoformans, strain 486 (USA), no visible growth): 25 µg/mL (≈ 81.6 µM); MIC ([1]; Cryptococcus neoformans, strain 488 (AIDS+, pre-HAART USA), no visible growth): 25 µg/mL (≈ 81.6 µM); MIC ([1]; Cryptococcus neoformans, strain 490 (USA), no visible growth): 12.5 µg/mL (≈ 40.8 µM); MIC ([1]; Cryptococcus neoformans, strain 496 (USA), no visible growth): 12.5 µg/mL (≈ 40.8 µM); MIC ([1]; Cryptococcus neoformans, strain 500 (USA), no visible growth): 12.5 µg/mL (≈ 40.8 µM); MIC ([1]; Cryptococcus neoformans, strain 502 (ARR3+ USA), no visible growth): 12.5 µg/mL (≈ 40.8 µM); MIC ([1]; Cryptococcus neoformans, strain 505 (India), no visible growth): 6.25 µg/mL (≈ 20.4 µM); MIC ([1]; Cryptococcus neoformans, strain 507 (India), no visible growth): 12.5 µg/mL (≈ 40.8 µM); MIC ([1]; Cryptococcus neoformans, strain 510 (VNII India), no visible growth): 3.13 µg/mL (≈ 10.2 µM); MIC ([1]; Cryptococcus neoformans, strain 512 (India), no visible growth): 12.5 µg/mL (≈ 40.8 µM); MIC ([1]; Cryptococcus neoformans, strain 516 (India), no visible growth): 12.5 µg/mL (≈ 40.8 µM); MIC ([1]; Cryptococcus neoformans, strain 518 (VNI India), no visible growth): 12.5 µg/mL (≈ 40.8 µM); MIC ([1]; Cryptococcus neoformans, strain 522 (India), no visible growth): 12.5 µg/mL (≈ 40.8 µM); MIC ([1]; Cryptococcus neoformans, strain 525 (India), no visible growth): 25 µg/mL (≈ 81.6 µM); MIC ([1]; Cryptococcus neoformans, strain 1188 (Japan lung), no visible growth): 12.5 µg/mL (≈ 40.8 µM); MIC ([1]; Cryptococcus neoformans, strain 1194 (Italy), no visible growth): 6.25 µg/mL (≈ 20.4 µM); MIC ([1]; Cryptococcus neoformans, strain 1196 (Botswana CSF/AIDS), no visible growth): 25 µg/mL (≈ 81.6 µM); MIC ([1]; Cryptococcus neoformans, strain 1197 (Botswana CSF/AIDS), no visible growth): 12.5 µg/mL (≈ 40.8 µM); MIC ([1]; Cryptococcus neoformans, strain 1199 (Uganda CSF/HIV+ VNII), no visible growth): 12.5 µg/mL (≈ 40.8 µM); MIC ([1]; Cryptococcus neoformans, strain H99O (lab strain), no visible growth): 12.5 µg/mL (≈ 40.8 µM); MIC ([1]; Cryptococcus neoformans, strain H99 XL (lab strain), no visible growth): 6.25 µg/mL (≈ 20.4 µM); MIC ([1]; Cryptococcus neoformans, strain H99 stud (lab strain), no visible growth): 6.25 µg/mL (≈ 20.4 µM); MIC ([1]; read-out: MIC-2, strain 1189 (USA BAL/HIV), 50% fungal growth): 12.5 µg/mL (≈ 40.8 µM); MIC ([1]; strain 1189 (USA BAL/HIV), no visible growth): 25 µg/mL (≈ 81.6 µM); MIC ([2]; ATCC24066, read-out: MIC-2, strain ATCC 24066 (NIH 18), 50% fungal growth): 1.56 µg/mL (≈ 5.09 µM); MIC ([2]; ATCC24066, strain ATCC 24066 (NIH 18), no visible growth): 3.13 µg/mL (≈ 10.2 µM); MIC ([2]; ATCC32269, read-out: MIC-2, strain ATCC 32269, 50% fungal growth): 0.78 µg/mL (≈ 2.55 µM); MIC ([2]; ATCC32269, strain ATCC 32269, no visible growth): 1.56 µg/mL (≈ 5.09 µM); MIC ([2]; ATCC32608, read-out: MIC-2, strain ATCC 32608 (NIH 191), 50% fungal growth): 0.39 µg/mL (≈ 1.27 µM); MIC ([2]; ATCC32608, strain ATCC 32608 (NIH 191), no visible growth): 0.78 µg/mL (≈ 2.55 µM); MIC ([2]; ATCC32609, read-out: MIC-2, strain ATCC 32609 (NIH444), 50% fungal growth): 3.13 µg/mL (≈ 10.2 µM); MIC ([2]; ATCC32609, strain ATCC 32609 (NIH444), no visible growth): 6.25 µg/mL (≈ 20.4 µM); MIC ([2]; ATCC34878, read-out: MIC-2, strain ATCC 34878, 50% fungal growth): 3.13 µg/mL (≈ 10.2 µM); MIC ([2]; ATCC34878, strain ATCC 34878, no visible growth): 6.25 µg/mL (≈ 20.4 µM); MIC ([2]; ATCC34882, read-out: MIC-2, strain ATCC 34882, 50% fungal growth): 1.56 µg/mL (≈ 5.09 µM)
